The results in this text go back to patent US9604975B2, “Indolyl-pyridone derivatives having checkpoint kinase 1 inhibitory activity” (Vernalis (R&D) Ltd., priority 2009, dated 2017).

Structures are written as SMILES. Some results are limits rather than exact numbers.

In general, IC50 refers to the concentration that gives 50% inhibition.

In the assay the target is T1, CHK1 (Homo sapiens, UniProt O14757).
T1 construct: His; purchased Invitrogen
T1 sequence (O14757 1-476): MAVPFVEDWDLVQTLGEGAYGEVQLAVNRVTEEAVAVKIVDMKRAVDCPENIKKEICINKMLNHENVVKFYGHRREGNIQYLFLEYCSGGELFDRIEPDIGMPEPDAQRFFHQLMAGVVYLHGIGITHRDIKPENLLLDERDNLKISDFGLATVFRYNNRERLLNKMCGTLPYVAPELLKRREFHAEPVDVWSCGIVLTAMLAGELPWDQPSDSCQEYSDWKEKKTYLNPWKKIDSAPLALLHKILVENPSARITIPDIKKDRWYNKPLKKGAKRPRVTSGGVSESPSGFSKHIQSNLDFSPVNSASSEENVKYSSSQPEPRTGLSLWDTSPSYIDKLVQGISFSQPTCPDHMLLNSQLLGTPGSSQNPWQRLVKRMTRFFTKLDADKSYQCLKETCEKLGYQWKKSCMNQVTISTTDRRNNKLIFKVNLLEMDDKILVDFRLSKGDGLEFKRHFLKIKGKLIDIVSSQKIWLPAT
The experiment in a line: CHK1 Enzyme Assay (phosphorylation of Chktide peptide, 33P-ATP filter assay). Format: biochemical. The conditions noted are these: 12.5 nM His-CHK1, 0.01 mM ATP, 40 minutes at 30° C.; read-out: CHK1 Enzyme Activity (IC50 range). The method, boiled down:
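Filter-binding radiometric readout of 33P incorporation into Chktide (14.8 μM), after a 40 min, 30 °C reaction at pH 7.5 (50 mM Hepes-NaOH, 0.1 mg/mL BSA). The reaction contained 12.5 nM His-tagged CHK1, inhibitor and 0.01 mM cold ATP plus labelled ATP.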

As to `O=C(Nc1c[nH]c(=O)c(-c2cc3cc(OCCN4CCCC4)ccc3[nH]2)c1)c1cnn(Cc2ccccc2)c1` [Example 144, 1-Benzyl-1H-pyrazole-4carboxylic acid {6-oxo-5-[5-(2-pyrrolidin-1-yl-ethoxy)-1H-indol-2-yl]-1,6-dihydro-pyridin-3-yl}-amide], the IC50 was less than 100 nM. Consider `CN(C)CCCOc1ccc2[nH]c(-c3cc(NC(=O)c4cnn(Cc5ccccc5)c4)c[nH]c3=O)cc2c1` [Example 145, 1-Benzyl-1H-pyrazole-4-carboxylic acid {5-[5-(3-dimethylamino-propoxy)-1H-indol-2-yl]-6oxo-1,6-dihydro-pyridin-3-yl}-amide], for which the IC50 is less than 100 nM.

Turning to `CN1CCN(CCOc2ccc3[nH]c(-c4cc(NC(=O)c5cnn(Cc6ccccc6)c5)c[nH]c4=O)cc3c2)CC1` [Example 146, 1-Benzyl-1H-pyrazole-4-carboxylic acid (5-{5-[2-(4-methyl-piperazin-1-yl)-ethoxy]-1H-indol-2-yl}-6-oxo-1,6-dihydro-pyridin-3-yl)-amide], the 50% inhibitory concentration (IC50) is less than 100 nM. The value for `CC1CN(CCOc2ccc3[nH]c(-c4cc(NC(=O)c5cnn(Cc6ccccc6)c5)c[nH]c4=O)cc3c2)CC(C)O1` (centres unmarked) [Example 147, 1-Benzyl-1H-pyrazole-4-carboxylic acid (5-{5-[2-(2,6-dimethyl-morpholin-4-yl)-ethoxy]-1H-indol-2-yl}-6oxo-1,6-dihydro-pyridin-3-yl)-amide] was less than 100 nM; that for `O=C(Nc1c[nH]c(=O)c(-c2cc3cc(OCCCN4CCCC4=O)ccc3[nH]2)c1)c1cnn(Cc2ccccc2)c1` [Example 148, 1-Benzyl-1H-pyrazole-4-carboxylic acid (6-oxo-5-{5-[3-(2-oxo-pyrrolidin-1-yl)-propoxy]-1H-indole-2-yl}-1,6-dihydro-pyridin-3-yl)-amide] was less than 100 nM. `O=C(Nc1c[nH]c(=O)c(-c2cc3cc(OCCN4CCCCC4)ccc3[nH]2)c1)c1cnn(Cc2ccccc2)c1` [Example 149, 1-Benzyl-1H-pyrazole-4-carboxylic acid {6-oxo-5-[5-(2-piperidin-1-yl-ethoxy)-1H-indol-2-yl]-1,6-dihydro-pyridin-3-yl}-amide]: the IC50 was less than 100 nM.

As to `CC(C)c1ccc(Cn2cc(C(=O)Nc3c[nH]c(=O)c(-c4cc5cc(OCCCN6CCCCC6)ccc5[nH]4)c3)cn2)cc1` [Example 150, 1-(4-Isopropylbenzyl)-1H-pyrazole-4-carboxylic acid-{6-oxo-5-[5-(3-piperidin-1-ylpropoxy)-1H-indol-2-yl]-1,6-dihydropyridin-3-yl}-amide], the IC50 is less than 100 nM.

Regarding `CC(C)(C)c1ccc(Cn2cc(C(=O)Nc3c[nH]c(=O)c(-c4cc5cc(OCCN6CCCCC6)ccc5[nH]4)c3)cn2)cc1` [Example 151, 1-(4-tert-Butylbenzyl)-1H-pyrazole-4-carboxylic acid {5-[5-(2-piperidin-1-ylethoxy)-1H-indol-2-yl)-6-oxo-1,6-dihydropyridin-3-yl}-amide], the half-inhibitory concentration (IC50) was less than 100 nM. The value for `CC(C)c1ccc(Cn2cc(C(=O)Nc3c[nH]c(=O)c(-c4cc5cc(OCCN6CCCCC6)ccc5[nH]4)c3)cn2)cc1` [Example 152, 1-(4-Isopropylbenzyl)-1H-pyrazole-4-carboxylic acid {5-[5-(2-piperidin-1-ylethoxy)-1H-indol-2-yl)-6-oxo-1,6-dihydropyridin-3-yl}-amide] was less than 100 nM. Consider `CC(C)(C)c1ccc(Cn2cc(C(=O)Nc3c[nH]c(=O)c(-c4cc5cc(OCCCN6CCCCC6)ccc5[nH]4)c3)cn2)cc1` [Example 153, 1-(4-tert-Butylbenzyl)-1H-pyrazole-4-carboxylic acid-{6-oxo-5-[5-(3-piperidin-1-ylpropoxy)-1H-indol-2-yl]-1,6-dihydropyridin-3-yl}-amide], for which the IC50 is less than 100 nM. Turning to `CCN(CC)CCOc1ccc2[nH]c(-c3cc(NC(=O)c4cnn(Cc5ccc(C(C)(C)C)cc5)c4)c[nH]c3=O)cc2c1` [Example 154], the IC50 lay within 500 to 1500 nM.
